Bounds are passed on as bounds.

What is called fraction unbound is the share of the substance not bound to proteins or other matrix. A low value points to extensive binding. Usually inhibition stands for how much of the control response was suppressed.

Data set [1] is described as follows: Cytotoxicity, MTT/MTS assay. Format: cell-based, human. The conditions noted are these: human, SH-SY5Y neuroblastoma cells; percentage of cell death after 24 h treatment at 100 µM (duplicate); read-out: SY5Y % Cytotox. How it is done: (§1) To assess potential cytotoxicity in CNS-relevant cells, human neuroblastoma (SH-SY5Y) cells were exposed to compounds 2–7 at concentrations up to 100 μM. Cell viability was measured using the MTT assay.
(§2) Cytotoxicity was assessed in human SH-SY5Y neuroblastoma cells cultured in Dulbecco’s Modified Eagle Medium (DMEM, Gibco, Thermo Fisher Scientific Inc., Waltham, MA, USA) supplemented with 2 mM L-glutamine, 100 μg/mL streptomycin, 100 IU/mL penicillin, 1 mM non-essential amino acids (all from Invitrogen, Thermo Fisher Scientific Inc., Waltham, MA, USA), and 10% (v/v) heat-inactivated fetal bovine serum (Sigma-Aldrich, Burlington, MA, USA). Cells were maintained at 37 °C in a humidified 5% CO2 atmosphere and serum-starved for 24 h to synchronize cultures before treatment with the test compounds at final concentrations of 100, 50, 10, 5, 1, 0.5, 0.1, or 0.05 μM (all in <0.1% DMSO). […] Absorbance was measured at 490 nm, and the results were expressed as a percentage relative to untreated control cells (set at 100%).
A general note: Tetrazolium assays rely on reduction of a dye to a coloured formazan, in cell work by metabolically active cells.

Data set [2] concerns SH-SY5Y neuroblastoma cells. The data set can be described thus: Cytotoxicity, MTT/MTS assay. The format is cell-based, human. The conditions noted are these: selectivity index; IC50 was considered > 100 µM. How it is done: as §1, §2
Data set [3] addresses serotonin 5-HT2A receptor (Homo sapiens, UniProt P28223). The experiment in a line: Off-target panel, aequorin functional assay. Format: cell-based. The conditions noted are these: 10 µM, duplicate; % inhibition of reference agonist activity. As for the experimental part:
Among the synthesized compounds, four derivatives were selected based on their affinity and selectivity profiles. […] The remaining compounds (2, 3, 6, and 7) were assessed for their agonist and antagonist activities across a panel of 58 receptors relevant to CNS disorders, including serotonin, adenosine, adrenergic, cannabinoid, dopamine, histamine, and muscarinic receptors. These assays were conducted at a concentration of 10 µM, in duplicate, utilizing aequorin [19], cAMP HTRF™ [20], and GTPγS binding assays, as detailed in Table 2. […] Specifically, compound 6 antagonized four receptors (5-HT2A, 5-HT2C, α1a, H1), while compound 7 was active against five receptors (5-HT2A, 5-HT3, α1a, H1, M1).
Rapidly, the tests were performed by Euroscreen (https://euroscreenfast.com/) with recombinant human G-coupled receptor-expressing cell lines using aequorin functional assays for serotonin 5-HT2A, 5-HT2B, 5-HT2C, 5-HT3, and 5-HT5A, adrenergic α1a and α1b, angiotensin AT1, cholesistokinin CCFK1, endothelin ETA, histamine H1, muscarinic M1 and M3, neurokinin NK1 and NK2, vasopressin V1a, and vasoactive intestinal peptide VPAC1 receptor analysis. Then, cAMP HTRF^TM assays were used to analyze serotonin 5-HT1A, 5-HT4E, 5-HT6, and 5-HT7, adenosine A1, A2A, and A3, adrenergic β1 and β2, cannabinoid CB1, dopamine D1, histamine H2, and neuropeptide Y NPY receptors. GTPγS^35 assays were used to analyze serotonin 5-HT1B, adrenergic α2a and α2b, dopamine D2, muscarinic M2 and M4, opioid δ, κ and µ, and somatostatine SST4 receptors.
Agonist and antagonist activities of the test compound are expressed as the percentage of the activity of the reference agonist at its EC100 concentration or the percentage of inhibition of the reference agonist activity at its EC80 concentration, respectively.
For the aequorin assays, different cell lines co-expressing the receptors were grown in specific culture media and incubated for 4 h with coelenterazine h. For agonist testing, cell suspensions were mixed with test or reference agonists in a 96-well plate. For antagonist testing, the reference agonist at its EC80 (final concentration) was injected to the mix the containing cells and the tested compound. The resulting emission of light was recorded using the Hamamatsu Functional Drug Screening System 6000 [19].

The nature of data set [4]: Plasma protein binding. The conditions noted are these: n = 2. Format: in vitro ADME. How it is done:
Solubility and stability remained unchanged in simulated gastric fluid (SGF) and simulated intestinal fluid (SIF), which mimic gastrointestinal digestion. Intestinal permeability was assessed using a two-chamber system with apical (A, pH 6.5) and basolateral (B, pH 7.4) compartments, representing the luminal and blood/mesenteric lymph sides of the gastrointestinal tract, respectively. […] The efflux ratios for both compounds ranged between 1 and 2, indicating improved permeability relative to the reference compound 1.
Standardized in vitro ADME experiments were performed by Eurofins Cerep (Poitiers, France). […] The compound was classically evaluated at 10 µM for all of the ADME analyses. Bidirectional permeability (apical A to basolateral B pH 6.5/7.4, and basolateral B to apical A pH 7.4/6.5) was assessed in the epithelial colorectal adenocarcinoma cell line (Caco-2 cell line). The results were expressed as ×10^−6 cm/s (Papp) and as % recovery. The efflux ratio, i.e., Papp (B→A)/Papp(A→B), was calculated. Plasma protein binding was analyzed by HPLC-MS/MS after 4 h of incubation at 37 °C, as described by Banker et al.. Concentration was evaluated by LC/MS-MS. […] Respective metabolites for each specific transporter substrate were analyzed by fluorometry or scintillation counting, and % inhibition of control values were calculated. […] The efflux ratio was calculated as Papp(B→A)/Papp(A→B). […]

Data set [5] deals with T1, CYP2B6 (Homo sapiens, UniProt P20813).
T1 construct: tissue Eurofins Cerep (assay provider); host or cells: human liver microsomes
The experiment in a line: CYP inhibition in human liver microsomes. Format: in vitro ADME. The note with it: n = 2, read-out: CYP inhibition 2B6. As for the experimental part: Microsomal stability was evaluated using human liver microsomes at 10 µM (Table 3). […] Since cytochrome P450 (CYP) enzymes—especially families 1 to 3—play major roles in drug metabolism, CYP inhibition was tested against the human isoforms CYP1A, 2B6, 2C8, 2C9, 2C19, 2D6, and 3A, as recommended by FDA and EMA guidelines. […] Membrane transport proteins, including the ATP-binding cassette (ABC) and solute carrier (SLC) families, affect drug pharmacokinetics and potential drug–drug interactions. The inhibitory effects of compounds 2 and 6 were assessed against five ABC transporters (P-gp, BCRP, MRP1, MRP2, and MRP3) and seven SLC transporters (OAT1, OAT3, OATP1B1, OCT1, OCT2, ASBT, and NTCP).
Standardized in vitro ADME experiments were performed by Eurofins Cerep (Poitiers, France). Solubility assays were performed in PBS at pH 7.4, but also in simulated gastric fluid (SGF) and intestinal fluid (SIF), through the classical shake-flask method described by Lipinski et al., using HPLC-UV/VIS technology. The results were expressed in µM. The compound was classically evaluated at 10 µM for all of the ADME analyses. Bidirectional permeability (apical A to basolateral B pH 6.5/7.4, and basolateral B to apical A pH 7.4/6.5) was assessed in the epithelial colorectal adenocarcinoma cell line (Caco-2 cell line). The results were expressed as ×10^−6 cm/s (Papp) and as % recovery. The efflux ratio, i.e., Papp (B→A)/Papp(A→B), was calculated. Plasma protein binding was analyzed by HPLC-MS/MS after 4 h of incubation at 37 °C, as described by Banker et al.. Concentration was evaluated by LC/MS-MS. CYP inhibition was performed in human liver microsomes as described in [28]. Analysis of the respective metabolites was performed by HPLC-MS/MS. Transporter inhibition analysis was also performed in overexpressing cell lines. Respective metabolites for each specific transporter substrate were analyzed by fluorometry or scintillation counting, and % inhibition of control values were calculated. P-glycoprotein transporter substrate assessment was performed by bidirectional permeability analysis (apical A to basolateral B pH 7.4/7.4, and basolateral B to apical A pH 7.4/7.4) in the Caco-2 cell line with and without verapamil, as described in [26]. The results were expressed as ×10^−6 cm/s (Papp) and as % recovery. The efflux ratio was calculated as Papp(B→A)/Papp(A→B). CYP450 induction was assessed in human hepatocytes by measuring the mRNA levels of seven CYP isoforms via qPCR, as described in [40]. The compound was tested at 1, 10, and 100 μM, and fold-induction values were compared with predefined cut-off thresholds for each isoform and hepatocyte lot.

Chain of serotonin 5-HT2A receptor (P28223 whole entry): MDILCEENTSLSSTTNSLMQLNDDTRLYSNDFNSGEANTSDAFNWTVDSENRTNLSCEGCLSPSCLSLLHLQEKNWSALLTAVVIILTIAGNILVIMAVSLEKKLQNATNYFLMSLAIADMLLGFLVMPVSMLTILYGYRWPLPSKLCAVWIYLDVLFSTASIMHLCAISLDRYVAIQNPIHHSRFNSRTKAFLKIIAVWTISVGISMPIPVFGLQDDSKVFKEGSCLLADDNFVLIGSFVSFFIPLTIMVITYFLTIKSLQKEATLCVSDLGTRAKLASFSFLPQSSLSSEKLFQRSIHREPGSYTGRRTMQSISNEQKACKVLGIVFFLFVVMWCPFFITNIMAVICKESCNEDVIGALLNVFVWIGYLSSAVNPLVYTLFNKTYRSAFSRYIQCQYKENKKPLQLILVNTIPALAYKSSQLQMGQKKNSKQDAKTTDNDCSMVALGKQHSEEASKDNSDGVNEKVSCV
T1 sequence (P20813 whole entry): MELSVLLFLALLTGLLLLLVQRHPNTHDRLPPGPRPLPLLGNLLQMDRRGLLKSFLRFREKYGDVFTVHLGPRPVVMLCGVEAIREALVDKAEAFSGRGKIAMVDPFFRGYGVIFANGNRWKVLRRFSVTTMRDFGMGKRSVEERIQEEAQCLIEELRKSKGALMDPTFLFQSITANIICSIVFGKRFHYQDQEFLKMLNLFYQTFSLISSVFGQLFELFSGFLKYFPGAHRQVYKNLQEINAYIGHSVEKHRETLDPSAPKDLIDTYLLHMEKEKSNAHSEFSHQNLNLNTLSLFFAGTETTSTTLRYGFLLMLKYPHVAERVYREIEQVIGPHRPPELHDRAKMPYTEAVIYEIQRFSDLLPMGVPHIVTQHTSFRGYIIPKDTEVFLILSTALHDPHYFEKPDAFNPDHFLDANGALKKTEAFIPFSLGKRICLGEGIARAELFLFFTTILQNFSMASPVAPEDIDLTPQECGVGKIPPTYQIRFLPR

As to `CN(CCC(=O)NCc1cccc(Cl)c1)Cc1ccccc1` [Compound 2, 3-(Benzylmethylamino)-N-(3-chlorobenzyl)propanamide], the cytotoxicity at 24 h, 100 µM in data set [1] was 12%. Further, the “IC50 (SY5Y)/ Ki (S1R)” value in data set [2] was >166,666. Besides, in data set [3], the “5-HT2A [b] antagonist activity” value worked out at 72%. Moreover, the fraction unbound at 4 h, 10 µM in data set [4] is 0.02. In data set [5], the inhibition at 10 µM was found to be 16.9%.
As to `CN(CCC(=O)NCc1ccc(C#N)cc1)Cc1ccccc1` [Compound 6, 3-(Benzylmethylamino)-N-(4-cyanobenzyl)propanamide], the cytotoxicity at 24 h, 100 µM in data set [1] came to 8%. In addition, the “IC50 (SY5Y)/ Ki (S1R)” value in data set [2] was >17,857. The “5-HT2A [b] antagonist activity” value in data set [3] is “antagonized”. Further, the fraction unbound at 4 h, 10 µM in data set [4] was 0.37. For the same compound, in data set [5], the inhibition at 10 µM stood at 17.7%.

These data come from paper PMC12430443, “Discovery of Novel Benzamide-Based Sigma-1 Receptor Agonists with Enhanced Selectivity and Safety” (Molecules, 2025).
